Experimental data as given in ChEMBL document CHEMBL2385007, “Synthesis and biological evaluation of prodrugs of 2-fluoro-2-deoxyribose-1-phosphate and 2,2-difluoro-2-deoxyribose-1-phosphate” (Bioorg Med Chem Lett, 2013).

Experiments:
[1] = Half life of the compound in fluka 82567 buffer at pH 7 by HPLC analysis; type: physicochemical
[2] = Half life of the compound in fluka 82564 buffer at pH 2 by HPLC analysis; type: physicochemical
[3] = tested on: Human alphaherpesvirus 3; assay: Antiviral activity against Varicellla-zoster virus 07-1 infected in HEL cells assessed as inhibition of virus-induced cytopathicity; type: functional, organism-based; conditions: Human alphaherpesvirus 3, 07-1, HEL
[4] = tested on: Human alphaherpesvirus 3; assay: Antiviral activity against Varicellla-zoster virus Oka infected in HEL cells assessed as inhibition of virus-induced cytopathicity; type: functional, cell-based; conditions: Human alphaherpesvirus 3, strain Oka vaccine
[5] = tested on: Vaccinia virus; assay: Antiviral activity against Vaccinia virus Lederle infected in HEL cells assessed as inhibition of virus-induced cytopathicity; type: functional, organism-based; conditions: Orthopoxvirus vaccinia
[6] = tested on: Felid alphaherpesvirus 1; assay: Antiviral activity against Feline herpesvirus in cat CrFK cells assessed as plaque formation; type: functional, organism-based; conditions: Felid alphaherpesvirus 1, CRFK
[7] = tested on: Feline coronavirus; assay: Antiviral activity against Feline coronavirus in cat CrFK cells assessed as plaque formation; type: functional, organism-based; conditions: Alphacoronavirus 1, CRFK
[8] = tested on: L1210; assay: Cytotoxicity against mouse L1210 cells; type: cell-based
[9] = tested on: Human alphaherpesvirus 2; assay: Antiviral activity against HSV-2 G infected in HEL cells assessed as inhibition of virus-induced cytopathicity; type: functional, organism-based; conditions: Human alphaherpesvirus 2, strain G
[10] = Cytotoxicity against human HEL cells; type: cell-based
[11] = tested on: Cytomegalovirus; assay: Antiviral activity against Cytomegalovirus Davis infected in HEL cells assessed as inhibition of virus-induced cytopathicity; type: functional, organism-based; conditions: Human betaherpesvirus 5, Davis
[12] = tested on: Human immunodeficiency virus 1; assay: Antiviral activity against HIV-1 3B infected in human CEM cells assessed as HIV-induced host giant cell formation after 4 days by microscopic analysis; type: functional, organism-based; conditions: Human immunodeficiency virus 1, 3B, CCRF-CEM, 96 h
[13] = tested on: Vesicular stomatitis virus; assay: Antiviral activity against Vesicular somatitis virus infected in HEL cells assessed as inhibition of virus-induced cytopathicity; type: functional, organism-based
[14] = tested on: Human alphaherpesvirus 1; assay: Antiviral activity against HSV-1 KOS infected in HEL cells assessed as inhibition of virus-induced cytopathicity; type: functional, organism-based; conditions: Human alphaherpesvirus 1, KOS
[15] = Cytotoxicity against cat CRFK cells; type: cell-based, Felis catus
[16] = Stability of the compound in fluka 82567 buffer at pH 7 assessed as compound degradation after 2 days by HPLC analysis; type: physicochemical; conditions: pH 7, 48 h
[17] = Stability of the compound at -20 degC assessed as compound degradation after 4 months by HPLC analysis; type: physicochemical; conditions: 2922 h
[18] = tested on: Human alphaherpesvirus 1; assay: Antiviral activity against thymidine kinase-deficient ACV-resistant HSV-1 KOS infected in HEL cells assessed as inhibition of virus-induced cytopathicity; type: functional, organism-based; conditions: Human alphaherpesvirus 1, KOS
[19] = Stability of the compound in fluka 82571 buffer at pH 5 assessed as compound degradation after 2 days by HPLC analysis; type: physicochemical; conditions: pH 5, 48 h
[20] = tested on: Human immunodeficiency virus 2; assay: Antiviral activity against HIV-2 ROD infected in human CEM cells assessed as HIV-induced host giant cell formation after 4 days by microscopic analysis; type: functional, organism-based; conditions: Human immunodeficiency virus 2, ISOLATE ROD, CCRF-CEM, 96 h
[21] = tested on: Human betaherpesvirus 5; assay: Antiviral activity against Cytomegalovirus AD-169 infected in HEL cells assessed as inhibition of virus-induced cytopathicity; type: functional, organism-based; conditions: Human betaherpesvirus 5, AD169, HEL
[22] = tested on: CCRF-CEM; assay: Cytotoxicity against human CEM cells; type: cell-based

`C[C@H](NP(=O)(Oc1ccccc1)O[C@H]1O[C@H](CO)[C@@H](O)[C@@H]1F)C(=O)OC1CCCCC1` (some centres not stated) showed a t1/2 [1] of 2 h and a t1/2 [2] of 1.07 h.

Compound `C[C@H](NP(=O)(Oc1ccccc1)O[C@H]1O[C@H](CO)[C@@H](O)C1(F)F)C(=O)OC1CCCCC1` (mixture of isomers) has an EC50 [3] greater than 20 µM, an EC50 [4] greater than 20 µM and an EC50 [5] greater than 20 µM. It also gave an EC50 [6] greater than 20 µM, an EC50 [7] greater than 20 µM and an IC50 [8] greater than 30 µM. It also gave an EC50 [9] greater than 20 µM, an MCC [10] of no less than 100 µM and an EC50 [11] greater than 20 µM. It also gave an EC50 [12] greater than 250 µM, an EC50 [13] greater than 20 µM and an EC50 [14] greater than 20 µM. For the same compound, the CC50 [15] was greater than 100 µM, the Stability [16] was “Stable” and the Stability [17] was “Stable”. For the same compound, the EC50 [18] was greater than 20 µM, the Stability [19] was “Stable” and the EC50 [20] was greater than 250 µM. The EC50 [21] was greater than 20 µM and the IC50 [22] was greater than 30 µM.
